Experimental data: publication PMC11545510, “Goat Milk Protein-Derived ACE Inhibitory Peptide SLPQ Exerts Hypertension Alleviation Effects Partially by Regulating the Inflammatory Stress of Endothelial Cells” (Foods, 2024)
Where a SMILES comes first, the peptide text is derived from it.

Tests used:
EA.hy926 cells = assay: MTT cell viability; type: cell-based; conditions: 12 or 24 h; for viability of EA.hy926 cells: concentration lower than 200 μg/mL
Experimental: The cells were cultured in DMEM with 100 units/mL streptomycin–penicillin plus 2% FBS under an atmosphere of 5% CO2, 37 °C, and 100% humidity. The cells were seeded in 96-well plates at a density of 1 × 10^5 cells/well, and then treated with different concentrations of SLPQ (0, 12.5, 25, 50, 100, 200, 400, 800 μg/mL) or PYVRYL (0, 25, 50, 100, 200, 400, 800 μg/mL) for 12 or 24 h. After that, 0.05 mg/mL of MTT was added to each well and the plate was incubated for four hours at 37 °C. Finally, the culture media were replaced with 150 μL DMSO, and the OD value was detected at a wavelength of 570 nm (Infinity F200 microplate reader, Mainz, Germany).

eNOS = conditions: goat milk-derived ACE-inhibitory peptide; ref [39]; cited from earlier work
Experimental: Consequently, peptides SLPQ or PYVRYL were supplemented at concentrations ranging from 0 to 200 μg/mL in the following study. The bradykinin–NO signaling pathway can be activated by […] [44], and NO plays an important role in regulating blood pressure and the tension of vascular smooth muscle. Therefore, the content of NO in the ...

Row | Compound | toxic effects on EA.hy926 cells (EA.hy926 cells; 400 μg/mL) | toxic effects on EA.hy926 cells (EA.hy926 cells; 800 μg/mL) | viability of EA.hy926 cells (EA.hy926 cells) | NO production and eNOS expression (eNOS)
1 | CC(C)C[C@H](NC(=O)[C@H](Cc1ccc(O)cc1)NC(=O)[C@H](CCCNC(=N)N)NC(=O)[C@@H](NC(=O)[C@H](Cc1ccc(O)cc1)NC(=O)[C@@H]1CCCN1)C(C)C)C(=O)O [PYVRYL] (H-PYVRYL-OH) | obvious toxic effects | obvious toxic effects | not affected | –
2 | CC(C)C[C@H](NC(=O)[C@@H](N)CO)C(=O)N1CCC[C@H]1C(=O)N[C@@H](CCC(N)=O)C(=O)O [SLPQ] (H-SLPQ-OH) | obvious toxic effects | obvious toxic effects | not affected | –
3 | SQPK | – | – | – | elevate NO production and eNOS expression
